Measurements published in US9161936B2, “Laquinimod for treatment of GABA mediated disorders” (TEVA PHARMACEUTICAL INDUSTRIES, LTD., priority 2012, dated 2015).

Tests used:
[1] = tested on: glutamate-mediated sEPSCs in control neurons; test: Bath application of LQ on corticostriatal slices of wild type mice, sEPSCs; format: cell-based, mouse
cannabinoid CB1 receptor = cannabinoid CB1 receptor (Mus musculus, UniProt P47746); test: Effect of HU210 on sIPSC frequency in striatal neurons (CB1 sensitivity of GABA synapses); conditions: for sIPSC frequency respect to pre-drug values: HU210 1 μM
Chain of cannabinoid CB1 receptor (P47746 whole entry): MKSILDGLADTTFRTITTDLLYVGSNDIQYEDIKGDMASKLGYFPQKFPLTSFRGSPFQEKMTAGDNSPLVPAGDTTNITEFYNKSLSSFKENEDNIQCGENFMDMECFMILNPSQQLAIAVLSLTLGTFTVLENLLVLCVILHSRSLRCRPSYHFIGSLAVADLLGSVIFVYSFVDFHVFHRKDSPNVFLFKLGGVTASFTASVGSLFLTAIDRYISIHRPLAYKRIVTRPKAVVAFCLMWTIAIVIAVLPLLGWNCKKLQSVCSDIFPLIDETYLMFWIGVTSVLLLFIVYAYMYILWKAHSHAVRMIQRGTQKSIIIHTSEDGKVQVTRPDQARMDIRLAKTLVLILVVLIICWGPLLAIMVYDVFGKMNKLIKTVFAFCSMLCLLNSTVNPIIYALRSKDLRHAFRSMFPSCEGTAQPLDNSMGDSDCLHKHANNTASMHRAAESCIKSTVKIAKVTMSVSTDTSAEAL
Procedure: Recordings were performed between 25 and 35 dpi. Mice were killed by cervical dislocation under halothane anaesthesia, and corticostriatal coronal slices (200 μm) were prepared from fresh tissue blocks of the brain with the use of a vibratome (Centonze et al., 2007, 2009; Rossi et al., 2010a,b). A single slice was then transferred to a recording chamber and submerged in a continuously flowing artificial CSF (ACSF) (34° C., 2-3 ml/min) gassed with 95% O2-5% CO2. The composition of the control ACSF was (in mM): 126 NaCl, 2.5 KCl, 1.2 MgCl2, 1.2 NaH2PO4, 2.4 CaCl2, 11 Glucose, 25 NaHCO3. Recording pipettes were advanced towards individual striatal cells in the slice under positive pressure and visual control (WinVision 2000, Delta Sistemi, Italy) and, on contact, tight GΩ seals were made by applying negative pressure. The membrane patch was then ruptured by suction and membrane current and potential monitored using an Axopatch 1D patch clamp amplifier (Axon Instruments, Foster City, Calif., USA). Whole-cell access resistances measured in voltage clamp were in the range of 5-20 MΩ. Whole-cell patch clamp recordings were made with borosilicate glass pipettes (1.8 mm o.d.; 2-3 MΩ), in voltage-clamp mode, at the holding potential (HP) of −80 mV. […] Conversely, to detect spontaneous GABAAmediated inhibitory postsynaptic currents (sIPSCs), intraelectrode solution had the following composition (mM): CsCl (110), K+-gluconate (30), ethylene glycol-bis(β-aminoethyl ether)-N,N,N′,N′-tetra-acetic acid (EGTA; 1.1), HEPES (10), CaCl2 (0.1), Mg-ATP (4), Na-GTP (0.3). MK-801 (30 μM) and CNQX (10 μM) were added to the external solution to block, respectively, NMDA and nonNMDA glutamate receptors. Synaptic events were stored by using P-CLAMP (Axon Instruments) and analyzed off line on a personal computer with Mini Analysis 5.1 (Synaptosoft, Leonia, N.J., USA) software. The detection threshold of spontaneous IPSCs and EPSCs was set at twice the baseline noise. The fact that no false events would be identified was confirmed by visual inspection for each experiment. Offline analysis was performed on spontaneous and miniature synaptic events recorded during fixed time epochs (3-5 min, 3-6 samplings), sampled every 5 or 10 minutes. […] For kinetic analysis, events with peak amplitude between 10 and 50 pA were grouped, aligned by half-rise time, normalized by peak amplitude. In each cell, the events were averaged to obtain rise times, decay times, and half widths (Centonze et al., 2009; Rossi et al., 2010a,b). […]
For data presented as mean±SE, n indicates the number of cells. One to six cells per animal were recorded. […] Multiple comparisons were analysed by one-way ANOVA followed by Tukey's HSD test. Comparisons between two groups were analysed by paired or unpaired Student's t-test. […]

[2] = background statement; cited from earlier work
[3] = tested on: GABAA-mediated sIPSCs in striatal neurons; test: Whole-cell patch clamp of sIPSCs in striatal neurons of LQ-treated EAE mice; format: in vivo, mouse; conditions: LQ-EAE mice 25 mg/kg, n=20
[4] = tested on: GABAA-mediated sIPSCs in control neurons; test: Bath application of LQ on corticostriatal slices of wild type mice, sIPSCs; format: cell-based, mouse
EAE mice = test: EAE induction and disease evaluation, preventive daily s.c. LQ; format: in vivo, mouse; conditions: for mice that developed the disease (incidence): 0-26 d.p.i., 15 mice; for maximum disease score: score 0-5
Procedure: Female C57BL/6 mice at 6-8 weeks of age were purchased from Charles River (Calco, Milan, Italy) and housed in pathogen-free conditions. All procedures involving animals were performed according to the guidelines of the San Raffaele Scientific Institute Institutional Animal Care and Use Committee.
EAE was induced by immunization with 3 subcutaneous injection of 100 μl each, containing a total of 200 μg of myelin oligodendrocyte glycoprotein (MOG) peptide 35-55 (Multiple Peptide System) in incomplete Freund's adjuvant and 8 mg/ml of Mycobacterium tuberculosis (strain H37Ra; Difco). Pertussis toxin (Sigma) (500 ng) was injected on the day of the immunization and again two days later. Body weight and clinical score (0=healthy; 1=limp tail; 2=ataxia and/or paresis of hindlimbs; 3=paralysis of hindlimbs and/or paresis of forelimbs; 4=tetraparalysis; 5=moribund or death) were recorded daily.
EAE mice were treated once daily by subcutaneous (s.c.) injection of LQ (supplied by Teva Pharmaceutical Industries, Netanya, Israel) (thereafter referred as LQ-EAE). LQ was administered at different doses (from 1 to 25 mg/kg) starting the same day of immunization up to 26 days post immunization (d.p.i.). Sham treated EAE mice (thereafter referred as untreated-EAE) and healthy control mice (thereafter referred as HC) were used as controls. Statistical analysis was performed using the unpaired Student's t-test.

spinal cord of EAE mice = test: Histological evaluation of spinal cord of EAE mice; format: in vivo, mouse
Procedure: At least 5 mice per group were transcardially perfused through the left cardiac ventricle with saline, plus EDTA 0.5 M for 5-10 min followed by fixation with cold 4% paraformaldehyde (PFA) (Sigma, St Louis, Mo.) in 0.1 M phosphate buffer (pH 7.4). Subsequently, spinal cords and brains were carefully dissected out and post-fixed in 4% PFA for 3-4 h and processed for paraffin embedding. The quantification of neurological damage was performed on 5 μm paraffin CNS sections obtained from HC, LQ-EAE mice, and untreated-EAE mice. Three different staining were used to detect inflammatory infiltrates (H&E), demyelination (Luxol fast blue) and axonal damage (Bielshowsky). Immunohistochemistry for CD3 (pan-T cell marker, Serotec Ltd, Oxford, UK), and BS-I isolectin B4 (biotinilated from Sigma, St Louis, Mo.) was performed to investigate T cells and macrophages within the inflammatory cellular infiltrates, respectively. […] Neuropathological findings were quantified on an average of 18-20 complete cross-sections of spinal cord per mouse taken at 8 different levels of the spinal cord. The number of perivascular inflammatory infiltrates were calculated and expressed as the numbers of inflammatory infiltrates per mm^2, demyelinated areas and axonal loss were expressed as percentage of damaged area per mm2. The number of T cells and macrophages lining within the subarachnoid space or infiltrating the CNS parenchyma was calculated and expressed as the number of cells per mm2. An Olympus microscope for the acquisitions of pictures was used. Statistical analysis was performed using the unpaired Student's t-test.

aEAE model = conditions: shown in U.S. Pat. No. 6,077,851; cited from earlier work
[5] = tested on: glutamate-mediated sEPSCs in striatal neurons; test: Whole-cell patch clamp of sEPSCs in striatal neurons of LQ-treated EAE mice; format: in vivo, mouse; conditions: LQ-EAE mice 25 mg/kg
[6] = systemically administered (Brück et al., 2011); cited from earlier work
[7] = mouse, in vivo, sc, 25 mg/kg
[8] = LQ-EAE mice vs untreated-EAE mice
[9] = s.c. LQ vs untreated-EAE mice, spinal cord sections
[10] = LQ 1 μM bath application, control neurons
[11] = LQ 1 μM, 12 minutes, control neurons

For `N#Cc1cc2[nH]c(=O)c(=O)[nH]c2cc1[N+](=O)[O-]` [CNQX, reference compound], which “blockade of sEPSCs recorded in the presence of LQ” value ([1]; CNQX 10 μM, n=5) is on record?
Its value is “fully blocked”.

For `CCCCCCC(C)(C)c1cc(O)c2c(c1)OC(C)(C)[C@@H]1CC=C(CO)C[C@@H]21` [HU210], which “sIPSC frequency respect to pre-drug values” (cannabinoid CB1 receptor; 10 min, control slices, n=8) is on record?
The value was 76±3%.

What about the “sIPSC frequency respect to pre-drug values” (cannabinoid CB1 receptor; striatal neurons from LQ-EAE mice (25 mg/kg), n=10) of the same compound?
Its value is 75±3%.

What about the “sIPSC frequency respect to pre-drug values” (cannabinoid CB1 receptor; striatal neurons from untreated EAE mice, n=10) of the same compound?
The value was 101±3%.

With `CCN(C(=O)c1c(O)c2c(Cl)cccc2n(C)c1=O)c1ccccc1` [LQ, N-ethyl-N-phenyl-1,2-dihydro-4-hydroxy-5-chloro-1-methyl-2-oxoquinoline-3-carboxamide] as the compound, how does the oral bioavailability [2] read?
Its oral bioavailability is “high”.

And the sIPSC frequency ([3]; untreated-EAE 0.8±0.1, HC 1.7±0.1)?
Its sIPSC frequency is 2.0±0.2 Hz.

And the sIPSC amplitude ([3]; untreated-EAE 20±1.5, HC 32±1.3)?
The sIPSC amplitude was 29±1.1 pA.

And the sIPSC amplitude ([4]; LQ 1 μM bath application)?
The sIPSC amplitude was “failed to alter”.

And the sIPSC frequency ([4]; LQ 1 μM bath application)?
Its sIPSC frequency is “failed to alter”.

And the “sIPSC decay time compared to pre-drug values” ([4]; LQ 1 μM, 12 minutes)?
The value was 98±3%.

What about the “sIPSC rise time compared to pre-drug values” ([4]; LQ 1 μM, 12 minutes) of the same compound?
Its value is 101±2%.

And the sIPSC frequency ([4]; LQ 10-30 μM bath application, n=8, p<0.01)?
Its sIPSC frequency is “significantly increased”.

And the EC50 ([4]; Mus musculus, Neuron, dose-response curve, bath application, read-out: EC50 of LQ-induced increase of sIPSC frequency)?
The EC50 was 4.3 µM.

What about the “mice that developed the disease (incidence)” value (EAE mice; 1 mg/kg LQ s.c. daily, untreated-EAE 15/15) of the same compound?
Its value is 86.6%.

And the maximum disease score (EAE mice; 1 mg/kg LQ s.c. daily, sham 3.5)?
Its maximum disease score is 3.5.

And the “cumulative score (0-26 dpi)” value (EAE mice; 1 mg/kg LQ s.c. daily, untreated EAE 27.5)?
The value was 27.3.

And the mean disease onset (EAE mice; 1 mg/kg LQ s.c. daily, untreated-EAE 11.9 (±2.33))?
The mean disease onset was 11.9 (±2.47).

What about the “cumulative score (0-26 dpi)” value (EAE mice; 5 mg/kg LQ s.c. daily) of the same compound?
The value was 21.5.

What about the mean disease onset (EAE mice; 5 mg/kg LQ s.c. daily) of the same compound?
Its mean disease onset is 14.6 (±4.29).

What about the “mice that developed the disease (incidence)” value (EAE mice; 5 mg/kg LQ s.c. daily) of the same compound?
The value was 80%.

And the maximum disease score (EAE mice; 5 mg/kg LQ s.c. daily)?
The maximum disease score was 3.

What about the “cumulative score (0-26 dpi)” value (EAE mice; 25 mg/kg LQ s.c. daily) of the same compound?
The value was 21.3.

And the “mice that developed the disease (incidence)” value (EAE mice; 25 mg/kg LQ s.c. daily)?
Its value is 40%.

And the maximum disease score (EAE mice; 25 mg/kg LQ s.c. daily)?
Its maximum disease score is 1.5.

And the “suppression of EAE” value (EAE mice; preventive treatment 0-26 dpi, daily s.c. 1-25 mg/kg, dose-dependent)?
The value was “significantly suppresses”.

And the mean disease onset (EAE mice; printed "the mg/kg LQ-EAE mice" (dose figure missing), s.c. daily)?
Its mean disease onset is 13.5 (±2.43).

And the “CD3+ T cells” value (spinal cord of EAE mice; [8])?
Its value is “significant reduction”.

What about the “IB4+ macrophages” value (spinal cord of EAE mice; [8]) of the same compound?
Its value is “significant reduction”.

And the “axonal damage (percentage over total section area)” value (spinal cord of EAE mice; [9])?
Its value is “significantly reduces”.

What about the “inflammation (perivascular infiltrates per section)” value (spinal cord of EAE mice; [9]) of the same compound?
The value was “significantly reduces”.

And the “myelin loss (demyelination, percentage over total section area)” value (spinal cord of EAE mice; [9])?
Its value is “significantly reduces”.

And the sEPSC amplitude [1, 10]?
The sEPSC amplitude was “failed to alter”.

What about the sEPSC frequency [1, 10] of the same compound?
The sEPSC frequency was “failed to alter”.

What about the “sEPSC decay time compared to pre-drug values” [1, 11] of the same compound?
Its value is 101±2%.

And the “sEPSC rise time compared to pre-drug values” [1, 11]?
The value was 99±1%.

What about the sEPSC amplitude ([1]; LQ 10-30 μM bath application, control neurons, n=10, p<0.01) of the same compound?
The sEPSC amplitude was “reducing”.

What about the EC50 ([1]; Mus musculus, Neuron, dose-response curve, bath application, control neurons, read-out: EC50 of LQ-induced decrease of sEPSC amplitude) of the same compound?
The EC50 was 4.5 µM.

And the “sEPSC frequency respect to pre-drug values” ([1]; highest concentration of LQ, n=7, p<0.05)?
Its value is 83±2.7%.

What about the “efficacy in the acute experimental autoimmune encephalomyelitis (aEAE) model” value (aEAE model) of the same compound?
The value was “effective”.

What about the sEPSC decay time ([5]; 25-35 dpi, n=20, untreated-EAE 5.4±0.4, HC 3.4±0.2) of the same compound?
The sEPSC decay time was 4.2 ± 0.3 ms.

And the sEPSC frequency ([5]; n=20, untreated-EAE 4.0±0.2, HC 2.7±0.2)?
Its sEPSC frequency is 3.4±0.4 Hz.

And the sEPSC half-width ([5]; n=20, untreated-EAE 6.4±0.4, HC 4.0±0.3)?
Its sEPSC half-width is 5.0 ± 0.3 ms.

And the sEPSC rise time ([5]; untreated-EAE 1.05±0.1, HC 1.03±0.1)?
The sEPSC rise time was 0.98 ± 0.1 ms.

And the sEPSC amplitude ([5]; untreated-EAE 11.1±0.8, HC 12.0±1.0)?
Its sEPSC amplitude is 12.2±1.1 pA.

What about the “crossing of the blood brain barrier” value [6] of the same compound?
The value was “able to cross the blood brain barrier”.

What about the CNS concentration [7] of the same compound?
The CNS concentration was 0.3 to 1 µM.

What about the “effect of CB1 receptor agonist HU210 on sIPSCs after LQ treatment” value (cannabinoid CB1 receptor; prophylactic LQ 25 mg/kg in EAE mice) of the same compound?
Its value is “completely restored”.
